From patent US12144889B2, “Methods of treating allergic conjunctivitis” (OCULAR THERAPEUTIX, INC., priority 2020, dated 2024)

Tests used:
[1] = oral, cited from earlier work; for Relative Potency: with reference to cortisol
[2] = Solubility of dexamethasone in water / aqueous medium; assay type: physicochemical; conditions: aqueous medium such as the tear fluid
Text: In certain embodiments of the present invention, dexamethasone is micronized and may have a D50 particle size of less than about 10 μm and/or a D99 particle size of less than about 50 μm. A specific suitable micronized dexamethasone for use in certain embodiments of the present invention is “Dexamethasone USP micronized” from Pfizer with a D90 particle size of equal to or less than about 5 μm (i.e., the volume portion of particles with a particle size of or below about 5 μm is 90%), and a D98 particle size of equal to or below about 10 μm (i.e., the volume portion of particles with a particle size of equal to or below about 10 μm is 98%). The “D” value such as in “D50” means that the indicated percentage by volume (such as 50 volume-% in D50 etc.) of all particles within the respective bulk material (which has a certain particle size distribution) has a particle size of or below the indicated value, e.g. a D50 particle size of below about 10 μm means that 50 volume-% of the particles have a particle size of or below about 10 μm. The particle size distribution can be commonly measured by methods known in the art, and includes sieving as well as laser diffraction methods. […]
It is believed that release of the glucocorticoid into the tear fluid is determined by the glucocorticoid's solubility in an aqueous environment. […]

[3] = 25° C.; cited from earlier work

| SMILES | Equivalent Dose [1] | solubility [2] | solubility in water [3] | Relative Potency [1] |
| --- | --- | --- | --- | --- |
| C[C@@H]1C[C@H]2[C@@H]3CCC4=CC(=O)C=C[C@]4(C)[C@@]3(F)[C@@H](O)C[C@]2(C)[C@@]1(O)C(=O)CO [Dexamethasone, 9-Fluor-11β,17,21-trihydroxy-16α-methyl-pregna-1,4-dien-3,20-dion] | 0.8 mg | < 100 µg/mL | approx. 89 mg/L |  |
| C[C@]12CCC(=O)C=C1CC[C@@H]1[C@@H]2[C@@H](O)C[C@@]2(C)[C@H]1CC[C@]2(O)C(=O)CO [Cortisol (Hydrocortisone), Cortisol] | 20 mg |  |  | 1 |
| C[C@]12C=CC(=O)C=C1CC[C@H]1[C@@H]3C[C@@H](O)[C@](O)(C(=O)CO)[C@@]3(C)C[C@H](O)[C@@]12F [Triamcinolone] | 4 mg |  |  | 5 |
| C[C@]12C=CC(=O)C=C1CC[C@@H]1[C@@H]2[C@@H](O)C[C@@]2(C)[C@H]1CC[C@]2(O)C(=O)CO [Prednisolone] | 5 mg |  |  | 4 |
